Measurements reported in publication PMC7026418, “The kinase polypharmacology landscape of clinical PARP inhibitors” (Scientific Reports, 2020).
Read-outs that look alike come from different tables or passages of the source.

Experiments:
Assay in all cases: biochemical
Design in all cases: DiscoveRx KINOMEscan active site-directed competition binding; percent of control kinase bound to immobilised ligand
MEK6 = target: T1, MEK6 (Homo sapiens, UniProt P52564)
T1 construct: gene MAP2K6
T1 sequence (P52564 1-334): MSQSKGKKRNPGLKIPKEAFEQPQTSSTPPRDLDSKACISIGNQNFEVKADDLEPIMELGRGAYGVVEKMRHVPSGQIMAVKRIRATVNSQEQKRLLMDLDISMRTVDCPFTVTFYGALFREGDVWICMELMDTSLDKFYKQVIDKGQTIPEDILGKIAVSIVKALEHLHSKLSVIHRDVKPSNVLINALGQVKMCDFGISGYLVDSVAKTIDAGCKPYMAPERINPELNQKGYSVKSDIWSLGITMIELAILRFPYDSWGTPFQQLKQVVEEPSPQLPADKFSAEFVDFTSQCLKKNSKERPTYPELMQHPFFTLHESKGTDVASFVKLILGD

STK36 = target: T2, STK36 (Homo sapiens, UniProt Q9NRP7)
T2 sequence (Q9NRP7 1-1315): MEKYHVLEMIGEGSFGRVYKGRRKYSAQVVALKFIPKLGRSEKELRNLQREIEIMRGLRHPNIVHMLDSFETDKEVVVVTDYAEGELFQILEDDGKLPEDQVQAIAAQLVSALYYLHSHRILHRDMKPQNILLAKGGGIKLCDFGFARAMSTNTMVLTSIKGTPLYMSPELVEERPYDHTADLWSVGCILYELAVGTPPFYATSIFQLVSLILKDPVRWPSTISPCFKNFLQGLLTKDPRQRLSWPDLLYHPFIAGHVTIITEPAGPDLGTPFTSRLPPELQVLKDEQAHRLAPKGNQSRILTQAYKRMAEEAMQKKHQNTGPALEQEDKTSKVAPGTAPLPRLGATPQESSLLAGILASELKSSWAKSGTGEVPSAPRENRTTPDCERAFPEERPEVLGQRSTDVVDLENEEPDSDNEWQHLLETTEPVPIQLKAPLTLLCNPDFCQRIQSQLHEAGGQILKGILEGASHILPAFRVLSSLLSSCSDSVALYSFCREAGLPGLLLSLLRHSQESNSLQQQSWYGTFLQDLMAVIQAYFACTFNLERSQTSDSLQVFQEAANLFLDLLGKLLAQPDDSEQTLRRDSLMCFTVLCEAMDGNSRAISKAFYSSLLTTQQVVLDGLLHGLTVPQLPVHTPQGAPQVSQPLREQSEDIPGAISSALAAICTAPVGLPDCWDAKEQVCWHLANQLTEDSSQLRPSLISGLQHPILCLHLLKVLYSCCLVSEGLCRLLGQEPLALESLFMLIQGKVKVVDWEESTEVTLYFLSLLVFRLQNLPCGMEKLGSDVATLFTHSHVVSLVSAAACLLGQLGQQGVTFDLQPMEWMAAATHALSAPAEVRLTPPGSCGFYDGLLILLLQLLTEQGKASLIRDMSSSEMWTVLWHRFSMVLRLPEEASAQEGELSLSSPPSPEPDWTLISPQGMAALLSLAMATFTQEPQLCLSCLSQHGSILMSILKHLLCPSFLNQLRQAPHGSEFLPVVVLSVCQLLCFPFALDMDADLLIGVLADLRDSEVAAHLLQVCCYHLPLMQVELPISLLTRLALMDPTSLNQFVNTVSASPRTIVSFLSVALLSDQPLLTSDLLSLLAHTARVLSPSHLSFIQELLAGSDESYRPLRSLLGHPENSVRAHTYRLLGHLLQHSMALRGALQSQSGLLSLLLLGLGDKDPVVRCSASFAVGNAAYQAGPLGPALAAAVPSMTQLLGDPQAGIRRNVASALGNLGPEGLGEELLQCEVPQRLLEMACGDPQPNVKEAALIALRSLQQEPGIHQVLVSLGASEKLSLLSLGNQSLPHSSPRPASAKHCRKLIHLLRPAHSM

FER = FER (Homo sapiens, UniProt P16591)
SYK = SYK (Homo sapiens, UniProt P43405)
[1] = read-out: Talazoparib (BMN 673) / %Ctrl @ 10000nM
[2] = read-out: Olaparib / %Ctrl @ 10000nM
[3] = read-out: Niraparib (MK-4827) / %Ctrl @ 10000nM
[4] = read-out: Rucaparib / %Ctrl @ 10000nM, binding competition, % of control

FER, sequence (P16591 whole entry): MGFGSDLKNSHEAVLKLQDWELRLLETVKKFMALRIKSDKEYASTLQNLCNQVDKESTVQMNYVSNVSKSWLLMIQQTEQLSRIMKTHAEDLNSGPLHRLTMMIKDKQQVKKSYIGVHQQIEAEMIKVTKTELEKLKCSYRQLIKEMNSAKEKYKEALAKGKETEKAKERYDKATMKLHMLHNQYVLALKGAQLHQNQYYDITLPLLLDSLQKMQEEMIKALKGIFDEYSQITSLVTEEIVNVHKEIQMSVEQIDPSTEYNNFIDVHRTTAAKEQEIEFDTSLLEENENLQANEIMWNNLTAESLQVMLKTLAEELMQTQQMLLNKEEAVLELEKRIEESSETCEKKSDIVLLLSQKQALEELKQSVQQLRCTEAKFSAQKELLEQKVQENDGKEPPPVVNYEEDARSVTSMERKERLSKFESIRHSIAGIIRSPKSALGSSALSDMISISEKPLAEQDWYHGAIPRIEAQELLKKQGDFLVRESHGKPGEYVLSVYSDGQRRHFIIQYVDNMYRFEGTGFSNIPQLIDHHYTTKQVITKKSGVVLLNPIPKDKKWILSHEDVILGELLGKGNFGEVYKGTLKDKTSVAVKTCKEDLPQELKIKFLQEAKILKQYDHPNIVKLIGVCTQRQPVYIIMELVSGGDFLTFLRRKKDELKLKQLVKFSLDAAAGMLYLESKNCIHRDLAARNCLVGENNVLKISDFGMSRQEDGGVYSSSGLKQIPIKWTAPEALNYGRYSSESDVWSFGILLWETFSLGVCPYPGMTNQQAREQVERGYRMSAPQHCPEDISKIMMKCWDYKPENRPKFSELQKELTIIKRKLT

Cn1ncnc1[C@H]1c2n[nH]c(=O)c3cc(F)cc(c23)N[C@@H]1c1ccc(F)cc1 [Talazoparib]
percent of control binding at 10 µM (MEK6; [1]): 83%
percent of control binding at 10 µM (STK36; [1]): 56%
percent of control binding at 10 µM (FER; [1]): 94%
percent of control binding at 10 µM (SYK; [1]): 85%

O=C(c1cc(Cc2n[nH]c(=O)c3ccccc23)ccc1F)N1CCN(C(=O)C2CC2)CC1 [Olaparib]
percent of control binding at 10 µM (MEK6; [2]): 86%
percent of control binding at 10 µM (STK36; [2]): 96%
percent of control binding at 10 µM (FER; [2]): 100%
percent of control binding at 10 µM (SYK; [2]): 100%

NC(=O)c1cccc2cn(-c3ccc([C@@H]4CCCNC4)cc3)nc12 [Niraparib]
percent of control binding at 10 µM (MEK6; [3]): 95%
percent of control binding at 10 µM (STK36; [3]): 88%
percent of control binding at 10 µM (FER; [3]): 93%
percent of control binding at 10 µM (SYK; [3]): 82%

CNCc1ccc(-c2[nH]c3cc(F)cc4c3c2CCNC4=O)cc1 [Rucaparib]
percent of control binding at 10 µM (MEK6; [4]): 81%
percent of control binding at 10 µM (STK36; [4]): 69%
percent of control binding at 10 µM (FER; [4]): 95%
percent of control binding at 10 µM (SYK; [4]): 100%
